This assay deals with T1, Human MGAT-2 (Homo sapiens, UniProt Q3SYC2).
T1 construct: made in house; host or cells: Sf9 cells (membrane preparation)
T1 sequence (Q3SYC2 whole entry): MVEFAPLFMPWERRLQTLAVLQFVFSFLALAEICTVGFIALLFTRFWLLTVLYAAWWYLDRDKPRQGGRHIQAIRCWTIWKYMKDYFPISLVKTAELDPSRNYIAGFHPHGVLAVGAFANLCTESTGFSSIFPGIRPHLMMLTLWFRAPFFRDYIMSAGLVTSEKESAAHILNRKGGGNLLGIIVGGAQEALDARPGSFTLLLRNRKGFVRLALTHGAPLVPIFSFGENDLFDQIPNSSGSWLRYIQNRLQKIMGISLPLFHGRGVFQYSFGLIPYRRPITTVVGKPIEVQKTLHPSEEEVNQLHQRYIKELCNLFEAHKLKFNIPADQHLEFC
The assay can be described thus: MGAT LCMS Assay. In kind it is biochemical. As to conditions: human MGAT2 membranes expressed in Sf9 cells; 100 μM 2-oleoylglycerol, 15 μM oleoyl-coenzyme A; read-out: h-MGAT LCMS IC50. In short, it runs like this: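 Robotic enzyme reaction shaken 10 min, quenched with ice-cold methanol containing 1 μg/mL 1,2-distearoyl-rac-glycerol internal standard. Diolein product measured by LC/MS (C8 column, 65° C, APCI(+) triple quad). IC50 derived from diolein/internal standard peak area ratio.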
On to `CCc1ccc(-c2cc(-c3ccc(OCCCCCC(F)(F)F)cc3F)[nH]c(=O)c2-n2nn[nH]c2=O)s1` [Example 157, 4-(5-Ethylthiophen-2-yl)-6-{2-fluoro-4-[(6,6,6-trifluorohexyl)oxy]phenyl}-3-(5-oxo-4,5-dihydro-1H-1,2,3,4-tetrazol-1-yl)-1,2-dihydropyridin-2-one], for which the IC50 (in general, the concentration that gives 50% inhibition) turned out to be 46 nM. With `CCCCCc1ccc(-c2cc(-c3ccc(C)cc3)c(NC(=O)c3ccccc3)c(=O)[nH]2)cc1` [Example 14, N-(2-Oxo-6-(4-pentylphenyl)-4-(p-tolyl)-1,2-dihydropyridin-3-yl)benzamide] the figure was 100 nM. With `Cc1ccc(-c2cc(-c3ccc(CCC4CC4)cc3)[nH]c(=O)c2-c2nnn[nH]2)cc1` [Example 61, 6-(4-(2-Cyclopropylethyl)phenyl)-3-(1H-tetrazol-5-yl)-4-(p-tolyl)pyridin-2(1H)-one] the figure was 139 nM; with `CCOc1ccc(NC(=O)c2c(-c3cnc(N(C)C)s3)cc(C3(O)CCCCC3)[nH]c2=O)cc1` [Example 9, 4-(2-(Dimethylamino)thiazol-5-yl)-N-(4-ethoxyphenyl)-6-(1-hydroxycyclohexyl)-2-oxo-1,2-dihydropyridine-3-carboxamide], 293 nM. With `CCc1ccc(-c2cc(-c3ccc(OCCCC(F)(F)F)cc3)[nH]c(=O)c2C(=O)NS(=O)(=O)C2CC2)s1` [Example 121] the figure was 11 nM. In the case of `Cc1ccc(-c2cc(-c3ccc(OCCCCCC(F)(F)F)cc3)[nH]c(=O)c2C(=O)NS(=O)(=O)N(C)C)cc1` [Example 56, N-(N,N-Dimethylsulfamoyl)-2-oxo-4-(p-tolyl)-6-(4-((6,6,6-trifluorohexyl)oxy)phenyl)-1,2-dihydropyridine-3-carboxamide], the IC50 is 29 nM. Then `COc1ccc(NC(=O)c2c(-c3ccc(C)cc3)c(F)c(-c3ccc(OCCCC(F)(F)F)cc3)[nH]c2=O)cc1` [Example 3, 5-Fluoro-N-(4-methoxyphenyl)-2-oxo-4-(p-tolyl)-6-(4-(4,4,4-trifluorobutoxy)phenyl)-1,2-dihydropyridine-3-carboxamide], with 19 nM.

Consider `CC(C)(C)c1ccc(-c2cc(-c3ccc(OCCCC(F)(F)F)cc3)[nH]c(=O)c2-c2nnn[nH]2)cc1` [Example 48, 4-(4-(tert-Butyl)phenyl)-3-(1H-tetrazol-5-yl)-6-(4-(4,4,4-trifluorobutoxy)phenyl)pyridin-2(1H)-one], for which the IC50 came out at 40 nM. Then `O=c1[nH]c(-c2ccc(OCCCC(F)(F)F)cc2F)cc(-c2ccc3c(c2)CCCC3)c1-c1nn[nH]n1` [Example 89, 6-(2-Fluoro-4-(4,4,4-trifluorobutoxy)phenyl)-4-(5,6,7,8-tetrahydronaphthalen-2-yl)-3-(2H-tetrazol-5-yl)pyridin-2(1H)-one], with 24 nM; and `O=C(NS(=O)(=O)C1CC1)c1c(-c2ncc(C3CC3)s2)cc(-c2ccc(OCCCC(F)(F)F)cc2F)[nH]c1=O` [Example 138, N-(Cyclopropylsulfonyl)-4-(5-cyclopropylthiazol-2-yl)-6-(2-fluoro-4-(4,4,4-trifluorobutoxy)phenyl)-2-oxo-1,2-dihydropyridine-3-carboxamide], with 13 nM; and `CN(C)c1ccc(-c2cc(-c3ccc(OCCCCCC(F)(F)F)cc3)[nH]c(=O)c2-c2nnn[nH]2)cc1` [Example 59, 4-(4-(Dimethylamino)phenyl)-3-(1H-tetrazol-5-yl)-6-(4-((6,6,6-trifluorohexyl)oxy)phenyl)pyridin-2(1H)-one], with 6 nM.

Take `CC1(C)CCC(c2ccc(-c3cc(-c4ccn(CC5CC5)n4)c(-c4nn[nH]n4)c(=O)[nH]3)cc2)CC1` [Example 172, 4-[1-(Cyclopropylmethyl)-1H-pyrazol-3-yl]-6-[4-(4,4-dimethylcyclohexyl)phenyl]-3-(2H-1,2,3,4-tetrazol-5-yl)-1,2-dihydropyridin-2-one]: the IC50 stood at 26 nM. Consider `Cc1ccc(-c2c(Br)c(-c3ccc(OCCCC(F)(F)F)cc3)[nH]c(=O)c2-c2nnn[nH]2)cc1` [Example 6, 5-Bromo-3-(1H-tetrazol-5-yl)-4-(p-tolyl)-6-(4-(4,4,4-trifluorobutoxy)phenyl)pyridin-2(1H)-one], for which the IC50 was 79 nM. Take `CCCC1CCC(c2ccc(-c3cc(-c4ccc(CC)s4)c(-c4nn[nH]n4)c(=O)[nH]3)cc2)CC1` (stereo not shown) [Example 167, 4-(5-Ethylthiophen-2-yl)-6-[4-(4-propylcyclohexyl)phenyl]-3-(2H-1,2,3,4-tetrazol-5-yl)-1,2-dihydropyridin-2-one]: the IC50 was 39 nM. As to `O=c1[nH]c(-c2ccc(OCCCCCC(F)(F)F)cc2)cc(-c2ccn(CC3CC3)n2)c1-c1nnn[nH]1` [Example 110, 4-(1-(Cyclopropylmethyl)-1H-pyrazol-3-yl)-3-(1H-tetrazol-5-yl)-6-(4-((6,6,6-trifluorohexyl)oxy)phenyl)pyridin-2(1H)-one], the IC50 is 43 nM. Then `CCOc1ccc(NC(=O)c2c(-c3ccc(C)cc3)cc(C3CCCCC3)[nH]c2=O)cc1` [Example 28, 6-Cyclohexyl-N-(4-ethoxyphenyl)-2-oxo-4-(p-tolyl)-1,2-dihydropyridine-3-carboxamide], with 137 nM. With `CCOc1ccc(NC(=O)c2c(-c3ccc(C)cc3)c(I)c(C3CCCCC3)[nH]c2=O)cc1` [Example 15, 6-Cyclohexyl-N-(4-ethoxyphenyl)-5-iodo-2-oxo-4-(p-tolyl)-1,2-dihydropyridine-3-carboxamide] the figure was 5 nM; with `CCCCCc1ccc(-c2[nH]c(=O)c(C(=O)Nc3ccc(OCC)cc3)c(-c3ccc(C)cc3)c2-c2ccccc2)cc1` [Example 32, N-(4-Ethoxyphenyl)-2-oxo-6-(4-pentylphenyl)-5-phenyl-4-(p-tolyl)-1,2-dihydropyridine-3-carboxamide], 193 nM. Then `O=c1[nH]c(-c2ccc(OCCCCCC(F)(F)F)cc2F)cc(-c2ccn(CC3CC3)n2)c1-n1nn[nH]c1=O` [Example 168, 4-[1-(Cyclopropylmethyl)-1H-pyrazol-3-yl]-6-{2-fluoro-4-[(6,6,6-trifluorohexyl)oxy]phenyl}-3-(5-oxo-4,5-dihydro-1H-1,2,3,4-tetrazol-1-yl)-1,2-dihydropyridin-2-one], with 373 nM; and `COc1ccc(NC(=O)c2c(-c3ccc(C)cc3)cc(C3CCCCC3)[nH]c2=O)cc1` [Example 34, 6-Cyclohexyl-N-(4-methoxyphenyl)-2-oxo-4-(p-tolyl)-1,2-dihydropyridine-3-carboxamide], with 223 nM; and `CCCCCc1ccc(-c2cc(-c3ccc(CC)o3)c(C(=O)Nc3ccc(OCC)cc3)c(=O)[nH]2)cc1` [Example 42, N-(4-Ethoxyphenyl)-4-(5-ethylfuran-2-yl)-2-oxo-6-(4-pentylphenyl)-1,2-dihydropyridine-3-carboxamide], with 395 nM. Turning to `Cc1ccc(-c2c(F)c(-c3ccc(OCCCC(F)(F)F)cc3)[nH]c(=O)c2-c2nnn[nH]2)cc1` [Example 17, 5-Fluoro-3-(1H-tetrazol-5-yl)-4-(p-tolyl)-6-(4-(4,4,4-trifluorobutoxy)phenyl)pyridin-2(1H)-one], the IC50 was 298 nM.

With `O=C(NS(=O)(=O)C1CC1)c1c(-c2ccc(CC3CC3)cc2)cc(-c2ccc(OCCCCCC(F)(F)F)cc2)[nH]c1=O` [Example 63, 4-(4-(Cyclopropylmethyl)phenyl)-N-(cyclopropylsulfonyl)-2-oxo-6-(4-((6,6,6-trifluorohexyl)oxy)phenyl)-1,2-dihydropyridine-3-carboxamide], the IC50 turned out to be 17 nM. `O=c1[nH]c(-c2ccc(OCCCCCC(F)(F)F)cc2F)cc(-c2ccc(C(F)F)cc2)c1-c1nnn[nH]1` [Example 130, 4-(4-(Difluoromethyl)phenyl)-6-(2-fluoro-4-((6,6,6-trifluorohexyl)oxy)phenyl)-3-(1H-tetrazol-5-yl)pyridin-2(1H)-one]: the IC50 was found to be 4 nM. With `CCn1ccc(-c2cc(-c3ccc(OCCCC(F)(F)F)cc3F)[nH]c(=O)c2C(=O)Nc2ccc(OC(F)(F)F)cc2)n1` [Example 120, 4-(1-Ethyl-1H-pyrazol-3-yl)-6-(2-fluoro-4-(4,4,4-trifluorobutoxy)phenyl)-2-oxo-N-(4-(trifluoromethoxy)phenyl)-1,2-dihydropyridine-3-carboxamide] the figure was 45 nM; with `CCc1cnc(-c2cc(-c3ccc(/C=C/C4CC4)cc3)[nH]c(=O)c2-c2nn[nH]n2)s1` [Example 147, (E)-6-(4-(2-Cyclopropylvinyl)phenyl)-4-(5-ethylthiazol-2-yl)-3-(2H-tetrazol-5-yl)pyridin-2(1H)-one], 7 nM; with `Cc1ccc(-c2cc(-c3ccc(OCCCCCC(F)(F)F)cc3C(F)(F)F)[nH]c(=O)c2-c2nnn[nH]2)cc1` [Example 134, 3-(2H-Tetrazol-5-yl)-4-(p-tolyl)-6-(4-((6,6,6-trifluorohexyl)oxy)-2-(trifluoromethyl)phenyl)pyridin-2(1H)-one], 3 nM.

For `CCn1ccc(-c2cc(-c3ccc(OCCCC(F)(F)F)cc3C(F)(F)F)[nH]c(=O)c2-c2nn[nH]n2)n1` [Example 129, 4-(1-Ethyl-1H-pyrazol-3-yl)-3-(2H-tetrazol-5-yl)-6-(4-(4,4,4-trifluorobutoxy)-2-(trifluoromethyl)phenyl)pyridin-2(1H)-one], the IC50 was 51 nM. Then `O=c1[nH]c(-c2ccc(OCCCCCC(F)(F)F)cc2)cc(-c2ccc(OC(F)F)cc2)c1-c1nnn[nH]1` [Example 108, 4-(4-(Difluoromethoxy)phenyl)-3-(1H-tetrazol-5-yl)-6-(4-((6,6-trifluorohexyl)oxy)phenyl)pyridin-2(1H)-one], with 14 nM; and `Cc1ccc(-c2c(C)c(-c3ccc(OCCCC(F)(F)F)cc3)[nH]c(=O)c2-c2nnn[nH]2)cc1` [Example 7, 5-Methyl-3-(1H-tetrazol-5-yl)-4-(p-tolyl)-6-(4-(4,4,4-trifluorobutoxy)phenyl)pyridin-2(1H)-one], with 9 nM; and `C/C=C/c1c(-c2ccc(CCCCC)cc2)[nH]c(=O)c(C(=O)Nc2ccc(OCC)cc2)c1-c1ccc(C)cc1` [Example 52], with 3 nM.

Values taken from patent US9974778B2, “Substituted pyridinones as MGAT2 inhibitors” (BRISTOL-MYERS SQUIBB COMPANY, priority 2014, dated 2018).
